The text below walks through data of article PMC8249445, “Complex effects of macrolide venturicidins on bacterial F-ATPases likely contribute to their action as antibiotic adjuvants” (Scientific Reports, 2021).

pKi: −log10 of the molar value. Like-named read-outs stand apart in the source and are kept apart here.

Experiment [1] deals with FOF1 in membranes from P. denitrificans. Set-up: method as in PMID 10672007. As to conditions: cited from earlier work.
Experiment [2] concerns the target T1, E. coli membranes with FOF1 lacking the ε subunit's CTD (ε88-stop) (Escherichia coli, UniProt P68699).
T1 construct: To express haploid levels of EcFOF1 containing WT-ε or ε88-stop; expressed in transfected cells; host or cells: E. coli strain XH1 (chromosomal atpC deletion) carrying the ε88-stop version of pMBε1; inverted membrane vesicles
In words: ATP hydrolysis by ε88-stop E. coli membranes, enzyme-coupled spectrophotometric assay. It is filed as biochemical. The following applies: for pKi: VentA at half-max. inhibition (Ki), early inhibition; for ATPase at saturating ventA (y0) / VentA-sensitive ATPase (y1): best fit of early rates. From the text: We next investigated whether the ε-inhibited state of EcFOF1 also impacts interactions of ventA with the enzyme. The N-terminal domain (NTD) of ε is required for FOF1 assembly and functional coupling of F1 to FO in eukaryotic and bacterial species; the C-terminal domain (CTD) of ε can auto-inhibit FOF1 and isolated F1 from some bacteria and from chloroplasts, but the mitochondrial homolog (δ) is not inhibitory[39],[40]. Thus we measured the effects of ventA on ATPase activity of E. coli membranes expressing ε88-stop, which lacks the autoinhibitory εCTD (Fig. 3). From Table 1 (100% ATPase values), it is clear that selenite activates membrane ATPase more (fourfold) for ε88-stop than for WT (2.8-fold). This is because, without the inhibitory εCTD, more enzyme complexes shift to the MgADP-inhibited state, which can be activated by selenite. […] In contrast, early inhibition of ATPase by ventA has similar Ki values for WT and ε88-stop membranes in the absence (0.7 vs 0.5 μM) or in the presence of selenite (0.23 vs 0.09 μM).
Plasmid pXH302S, which encodes the WT atpC gene and expresses near haploid levels of the ε subunit, was subjected to fusion PCR mutagenesis to construct plasmid pMBε1, with an N-terminal affinity tag ([…]) added prior to the initial Met residue. To express the ε88-stop subunit, an AfeI-ScaI restriction fragment of WT pMBε1 was replaced by the analogous fragment from pH6ε88-stop[46]. To express haploid levels of EcFOF1 containing WT-ε or ε88-stop, the appropriate version of pMBε1 was transformed into E. coli strain XH1, which has a chromosomal deletion of the atpC gene for ε[54]. For these transformed strains, cultures were grown and inverted membrane vesicles (IMV) were prepared according to [55]. WT ε, with the same N-terminal His6-tag, was over-expressed from pH6ε and purified as described.
ATP hydrolysis by membrane vesicles was assayed spectrophotometrically[57] at 30 °C using an open-chamber, diode array spectrophotometer (Hewlett Packard 8453 UV–Vis) as described in[29]. The assay medium (1 ml per assay) contained 20 mM Mops/Tris, pH 8.0, 0.2 mM EDTA, 10 mM CH3COOK, 1 mM ATP, 3.2 mM Mg(CH3COO)2, 1 mM phosphoenolpyruvate, at least 0.3 mM NADH, 0.1 mg/ml pyruvate kinase, 0.1 mg/ml lactate dehydrogenase, 5 mM KCN, and 5 μM carbonyl cyanide 4-(trifluoromethoxy)-phenylhydrazone. As noted before, the rate of ATP hydrolysis by membranes increases to a small degree during assays. This is due, at least in part, to dissociation of a small fraction of EcF1 and/or ε from the membranes, since the increase is inhibited by added ε (e.g., Fig. 5). To avoid interference of this increase with the changes of ATPase activity induced by venturicidins, unless indicated otherwise, measurement of ATPase activities were started 60 min after addition of membranes to the complete assay medium. This minimizes further increases in ATPase rate during control assays to < 15%. To keep absorbance between 1.5 and 2 units after the 60-min preincubation, up to 0.2 mM additional NADH was added to the assay medium. In figures displaying activity traces, some traces are shifted vertically for visual clarity.

The next experiment relates to E. coli. Set-up: method as in PMID 32424122. The following applies: complex growth medium; cited from earlier work.
A further experiment concerns S. aureus (MRSA) strains. As to conditions: cited from earlier work.
A further experiment deals with mitoFOF1. Set-up: method as in PMID 124668. The following applies: cited from earlier work.
[3] abbreviates: ε88stop + 38.5 mM selenite (Fig. 3B).

`CCC(=O)C(C)C(O)C(C)CC(C)C1OC(=O)CC2(O)CC=C(C)C(O2)C(C)=CCCCC(OC2CC(OC(N)=O)C(O)C(C)O2)C=CC(C)CC1C` (centres unmarked) [ventA, venturicidin A]: the “Sensitivity of ATPase to ventA inhibition, sulfite-activated vs PMF-activated FOF1” value in experiment [1] is listed as “~ threefold”. Also, the results for the pKi in experiment [2] (ε88stop (Fig. 3A)) and in experiment [2] (setting [3]) were 6.30 and 7.05, respectively. In experiment [2] (ε88-stop membranes), the “Ki for early inhibition lower in presence of selenite than in its absence” value is given as “fivefold”. Besides, the “ATPase at saturating ventA (y0)” value in experiment [2] (ε88stop (Fig. 3A)) is 37% (± 3); in experiment [2] (setting [3]), 37% (± 2). For the same compound, the “VentA-sensitive ATPase (y1)” value is on record as 67% (± 4) in experiment [2] (ε88stop (Fig. 3A)) and 66% (± 4) in experiment [2] (setting [3]). Also, the Adjuvant action result with E. coli is “minimal adjuvant action”. For the same compound, the “Reduction of cellular ATP” value in the experiment with S. aureus (MRSA) strains (16 μg ventA/ml) was ~ 40%; in the experiment with S. aureus (MRSA) strains (fourfold greater ventA than 16 μg/ml), ~ 90%. The “Concentration at which maximal effect on Δψ was achieved” value with S. aureus (MRSA) strains (MRSA strain tested further) is 16 μg ventA/ml. Also, in the experiment with mitoFOF1 (detergent-solubilized mitoFOF1), the “Stimulation of solubilized ATPase” value was “up to 3 fold”. The “Inhibition of membrane ATPase” value in the experiment on mitoFOF1 (mitoFOF1 in membranes) was 95%.

By pKi is commonly meant the negative decadic logarithm of the Ki, by convention in mol/L.
